Molecular target: Thymidylate synthase (Mus musculus, UniProt P07607)
Experiment: Inhibition of mouse thymidylate synthase in mouse L1210 cells

Sequence of Thymidylate synthase (P07607 whole entry): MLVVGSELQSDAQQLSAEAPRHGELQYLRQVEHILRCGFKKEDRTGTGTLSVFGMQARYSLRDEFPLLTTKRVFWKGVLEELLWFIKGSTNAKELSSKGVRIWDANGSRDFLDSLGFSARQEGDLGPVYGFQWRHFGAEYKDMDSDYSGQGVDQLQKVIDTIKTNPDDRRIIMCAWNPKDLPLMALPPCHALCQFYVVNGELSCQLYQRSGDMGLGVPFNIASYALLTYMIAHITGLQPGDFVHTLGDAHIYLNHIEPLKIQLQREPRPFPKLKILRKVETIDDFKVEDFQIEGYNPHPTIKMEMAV

Ki [nM]	Compound
8.12	CCCc1cn([C@H]2C[C@H](O)[C@@H](OP(=O)(O)O)O2)c(=O)[nH]c1=O
28.1	CCc1cn([C@H]2C[C@H](O)[C@@H](OP(=O)(O)O)O2)c(=O)[nH]c1=O
128	O=c1[nH]c(=O)n([C@H]2C[C@H](O)[C@@H](OP(=O)(O)O)O2)cc1I
2.57	O=c1[nH]c(=O)n([C@H]2C[C@H](O)[C@@H](OP(=O)(O)O)O2)cc1[N+](=O)[O-]
660	O=c1[nH]c(=O)n([C@H]2C[C@H](O)[C@@H](OP(=O)(O)O)O2)cc1Br
269	O=c1[nH]c(=O)n([C@H]2C[C@H](O)[C@@H](OP(=O)(O)O)O2)cc1CO
138	Cc1cn([C@H]2C[C@H](O)[C@@H](OP(=O)(O)O)O2)c(=O)[nH]c1=O
309	O=c1[nH]c(=O)n([C@H]2C[C@H](O)[C@@H](OP(=O)(O)O)O2)cc1O

Source: BindingDB's records for doi:10.1016/j.bmc.2007.01.021 (Polish Academy of Sciences, 2007)
